Results: patent US4997852A, “Method and composition for achieving cancer chemopreventive and chemotherapeutic activity” (priority 1989, dated 1991)
Where two headings read alike, the source gives them in different places.

How the values were obtained:
[1] = test system: beta-glucuronidase; conditions: in cells, blood, cited from earlier work
[2] = test system: DMBA-induced mammary tumors; assay: chemoprevention of DMBA-induced rat mammary carcinogenesis (Example II); format: in vivo, female Sprague Dawley rats
Description: (§1) The 13-cis-RA was dissolved in a vehicle consisting of ethanol:tricaprylin:1:4 (v/v) and 4% w/v α-tochopherol. The mixture was added to the meal at the rate of 25 ml/2 kg then stored in the dark at -20° C. […] The same amount of vehicle was also added to the control diet and to the diets containing glucarate. Beginning 5 weeks post DMBA treatment, the rats were examined (palpated) twice every week for mammary tumors. They were also weighed once weekly throughout the 20 week period of the experiment.

[3] = test system: MCF-7 cells; assay: inhibition of MCF-7 breast cancer cell growth in culture (Example III); format: cell-based, human; conditions: for inhibition at 0.01 µM / inhibition at 0.1 µM / inhibition at 1 µM / inhibition at 10 µM: Homo sapiens, MCF7, read-out: inhibition of cell growth
Description: The MCF-7 cell line was derived from a hormone-dependent metastatic breast cancer. It has retained several characteristics of differentiated mammary epithelium, Soule et al., J. Natl. Cancer Inst. 51:1409-1413 (1973), and the cells contain estrogen receptors. The MCF-7 cell line used was obtained from the OSU Cell Culture Service laboratory, but originated from the Michigan Cancer Foundation, Detroit, Mich. The MCF-7 cells were seeded at 1×10^3 cells/cm^2 in 35 mm wells containing MEM (Earle base medium) supplemented with MEM non-essential amino acids (1.0 mM), L-glutamic acid (2.0 mM), penicillin and streptomycin (100 ug/ml) and fetal calf serum (10%) as described in Ueda et al., Cancer 46:2203-2206, (1980). The cells are maintained at 37° C. in a humidified atmosphere of 5% CO2 /20% O2 with the growth medium replaced twice a week. The retinoids were dissolved in ethanol and added to the culture medium starting 24 hrs. after seeding. […] Glucarate concentrations varied from 10^-5 to 10^-8 M. Cell counts were done with a Coulter counter and viability of the cells was determined by the trypan blue exclusion method and also by their ability to resume growth after removal of inhibitory agents. Cytotoxicity was evaluated by exposing the MCF-7 cells to equimolar concentrations of the agents and examining viability after 6 days of treatment. All experiments were done in triplicate.
In this experiment series glucarate as the soluble potassium salt and 13-cis-RA were evaluated, alone and in combination, for their ability to inhibit the growth of MCF-7 breast cancer cells in culture.
The log transformed dose refers to the level in μM added to the medium as was varied from […] (0.01) μM to 10^-1 μM. The retinoid vehicle, ethanol, was added to all cultures and all values have been corrected for its slight inhibitory effect (7%).

[4] = test system: rat mammary tumors; assay: rat mammary tumor chemoprevention and shrinkage, effective dietary levels; format: in vivo; conditions: for dietary level when used individually: alone
[5] = weight gain of rats on CGT and HPR diets (FIG. 4); format: in vivo, female Sprague Dawley rats; conditions: prolonged feeding of diets containing CGT and HPR
Description: (§2) They were maintained on the diets for approximately 4 mos., and were examined (palpated) for mammary tumors weekly. […] The retinoid (HPR) was first dissolved in 25 ml of a vehicle consisting of ethanol-tricaprylin-6% α-tocopherol, then thoroughly mixed with powdered rat chow.

[6] = test system: chemical induction of tumors in rodent skin, mammary glands, lung and liver; conditions: cited from earlier work
[7] = weights of rats on diets (Example II, Table III); conditions: CGT 2%, RA 1.0 mmol/kg diet
Description: as §1

[8] = test system: 7,12-dimethylbenz(a)anthracene-induced mammary tumors; assay: DMBA-induced mammary tumor formation in female Sprague Dawley rats (Example I); format: in vivo; conditions: 1.0% CGT
Description: as §2
Protocol: 50 d old female S.D. rats received a single dose 75 mg/kg of
with DMBA, then continued throughout the experiment.

[9] = test system: 7,12-dimethylbenz(a)anthracene-induced mammary tumorigenesis; conditions: cited from earlier work
[10] = CGT-supplemented diet vs normal chow diet; cited from earlier work
[11] = test system: MCF-7 cells; assay: growth of MCF-7 cells in GL/HPR-containing media (Table II); format: cell-based, human; conditions: 5 days
Description: The values shown are the mean +/- ISE for three experiments counted in triplicates. The numbers in parenthesis indicate the number of free floating (mostly non viable) cells in the media.

[12] = GL itself; cited from earlier work
[13] = test system: MCF-7 cells; assay: growth of human breast cancer cell line MCF-7, 7 days; format: cell-based; conditions: MCF7, 168 h, 0.1 μM HPR, within 7 days, read-out: growth, % of the control
Description: When higher doses (2 mmol/kg diet) of HPR were used, growth arrest was followed within 5 to 10 days by 30% regression of the DMBA-induced mammary tumors. Also, HPR (0.1μM) inhibited the […] growth of the human breast cancer cell line (MCF-7) to 50% of the control within 7 days.

**Q.** For 2,4-di-0-acetyl-D-glucaro-1-lactone, which inhibition of beta-glucuronidase ([1]; urine, intestine and liver) is on record?
**A.** effective as inhibitors of beta-glucuronidase

**Q.** Which results are given for `CC1=C(/C=C/C(C)=C/C=C/C(C)=C\C(=O)O)C(C)(C)CCC1` [13-cis-RA, 13-cis-retinoic acid, reference compound]?
**A.** effect on tumor incidence over controls ([2]; 1.0 mmol/kg diet 13-cis-RA (group III)): slight, but insignificant, enhancement of tumor incidence; inhibition at 0.01 µM [3]: 2%; inhibition at 0.1 µM [3]: 9.2%; inhibition at 1 µM [3]: 12%; inhibition at 10 µM [3]: 52.2%; inhibitory activity of retinoid alone ([3]; concentrations above 1.0 μM): significant inhibitory activity

**Q.** For `O=C([O-])[C@@H](O)[C@@H](O)[C@H](O)[C@@H](O)C(=O)[O-].[Ca+2]` [CGT, calcium glucarate], which “dietary level when used individually” value [4] is on record?
**A.** 128 mmol/kg

**Q.** And the “weight gain of rats” value [5]?
**A.** did not affect weight gain

**Q.** And the “inhibition of chemical induction of tumors” value ([6]; dietary, rodent skin, mammary glands, lung, liver)?
**A.** 50-70%

**Q.** What about the “Weights of rats on diets” value ([7]; 0 weeks on diet, control 177.2 +/-10.9) of the same compound?
**A.** 182.2 +/-8.8 gm

**Q.** What about the “Weights of rats on diets” value ([7]; 5 weeks on diet, control 218.3 +/-16.9) of the same compound?
**A.** 224.8 +/-11.6 gm

**Q.** What about the “Weights of rats on diets” value ([7]; 17 weeks on diet, control 247.0 +/-32.2) of the same compound?
**A.** 250.3 +/-14.2 gm

**Q.** And the inhibition of tumors/rat [8]?
**A.** 9%

**Q.** What about the “tumor induction, % of that in controls” value ([9]; 4% CGT diet, by 28 weeks) of the same compound?
**A.** 30%

**Q.** And the tumor regression ([9]; chow diet supplemented with CGT)?
**A.** some tumors on the chow diet supplemented with CGT underwent regression

**Q.** And the “food quantity and weight gain” value [10]?
**A.** identical to those on the normal chow diet

**Q.** And the inhibition of beta-glucuronidase ([1]; urine, intestine and liver)?
**A.** effective as inhibitors of beta-glucuronidase

**Q.** And the “effect on tumor incidence compared to control group” value ([2]; 2% CGT, 64 mmol/kg diet (group II))?
**A.** did not show any effect on tumor incidence

**Q.** Which results are given for `O=C(O)[C@@H](O)[C@H]1OC(=O)[C@H](O)[C@H]1O` [GL, D-glucaro-1,4-lactone]?
**A.** No. of viable cells ([11]; GL 10^-4 M, control 60400 ± 2147): 49480 ± 3160; activity at 1000 µM ([11]; Homo sapiens, MCF7, 120 h, GL 10^-3 M, parenthesised, control 11, read-out: free floating cells, % of control): 7%; viability at 1000 µM ([11]; Homo sapiens, MCF7, 120 h, GL 10^-3 M, read-out: viable cells, % of control): 54 ± 3%; activity at 100 µM ([11]; Homo sapiens, MCF7, 120 h, GL 10^-4 M, parenthesised, control 11, read-out: free floating cells, % of control): 6%; viability at 100 µM ([11]; Homo sapiens, MCF7, 120 h, GL 10^-4 M, read-out: viable cells, % of control): 82 ± 5%; absorption and clearance from the body [12]: too rapidly absorbed and cleared from the body; inhibition of beta-glucuronidase ([1]; urine and intestine, 4-lactone): potent beta-glucuronidase inhibitor; inhibition of beta-glucuronidase ([1]; urine and intestine): potent inhibitor of beta-glucuronidase

**Q.** For `O=C(O)[C@@H](O)[C@@H](O)[C@H](O)[C@@H](O)C(=O)[O-].[K+]` [GT, potassium hydrogen glucarate], which inhibition of beta-glucuronidase ([1]; urine, intestine and liver) is on record?
**A.** effective as inhibitors of beta-glucuronidase

**Q.** What about the “increase in inhibition of growth as a function of glucarate concentration” value ([3]; 1000-fold range of glucarate, at 13-cis-RA 0.0, 0.1 and 1.0 μM) of the same compound?
**A.** 7-25%

**Q.** What about the inhibition at 0.01 µM [3] of the same compound?
**A.** 0%

**Q.** And the inhibition at 0.1 µM [3]?
**A.** 6%

**Q.** And the inhibition at 1 µM [3]?
**A.** 6%

**Q.** What about the inhibition at 10 µM [3] of the same compound?
**A.** 11%

**Q.** With `CC1=C(/C=C/C(C)=C/C=C/C(C)=C/C(=O)Nc2ccc(O)cc2)C(C)(C)CCC1` [HPR, N-(4-hydroxyphenyl)retinamide, reference compound] as the compound, how does the “dietary level when used individually” value [4] read?
**A.** 2.00 mmol/kg

**Q.** And the “minimum dosage consistent with maximum inhibition of carcinogenesis” value ([4]; used alone)?
**A.** 1.0 to 1.5 mmol/kg

**Q.** And the “weight gain of rats” value [5]?
**A.** did not affect weight gain

**Q.** And the activity at 0.1 µM [13]?
**A.** 50%

**Q.** What about the activity at 0.05 µM ([11]; Homo sapiens, MCF7, 120 h, HPR 5 × 10^-8 M, parenthesised, control 11, read-out: free floating cells, % of control) of the same compound?
**A.** 7%

**Q.** And the viability at 0.05 µM ([11]; Homo sapiens, MCF7, 120 h, HPR 5 × 10^-8 M, read-out: viable cells, % of control)?
**A.** 56 ± 4%

**Q.** Which “effect on tumor induction” value ([6]; equimolar calcium) does the source give for `O=C(O)[C@H](O)[C@@H](O)[C@H](O)[C@H](O)CO` [calcium gluconate, reference compound] here?
**A.** no effect
